Experimental data taken from article PMC3871636 (PLoS ONE, 2013).

Columns and labels:
[1] = target: CYP3A4 (C377/C468 mutant) (Homo sapiens, UniProt P08684, form not given/S18F); experiment: Ligand-induced spin shift, absorbance titration; assay type: binding; conditions: human, purified CYP3A4(C377/C468) mutant protein, pH 7.4; read-out: K D or S 50
Experimental: (§1) All absorbance and fluorescence assays (including the time-resolved fluorescence measurements) were performed at a protein concentration ≤1 µM at 25°C with continuous stirring. Absorbance spectra were recorded with an S2000 rapid scanning CCD spectrometer (Ocean Optics). Ligand binding assays were done in 100 mM Na-Hepes buffer, pH 7.4, containing 0.5 mM EDTA.
(§2) Absorbance spectra obtained in titration experiments were analyzed with a principal component analysis (PCA) procedure complemented with least-square approximation of the principal vectors with a combination of the prototypical spectra of the CYP3A4 low-spin, high-spin and Type II-substrate-bound ferric CYP3A4 P450 states as described, [31].
(§3) When fitting the results of titration experiments, where the changes in the monitored signal A S (fraction of the enzyme in the high-spin state, intensity or the lifetime of the donor phosphorescence at a given substrate concentration) were assumed to be proportional to [ES], this equation was complemented with the offset A 0 and the scaling factor A max to yield the following relationship: [drawing 5] (Eq.5)

[2] = target: CYP3A4 (C64/C468 mutant) (Homo sapiens, UniProt P08684, form not given/S18F); experiment: Ligand-induced spin shift, absorbance titration; assay type: binding; conditions: human, purified CYP3A4(C64/C468) mutant protein, pH 7.4; read-out: K D or S 50
Chain of CYP3A4 (C64/C468 mutant) (P08684 13-503 S18F, form open): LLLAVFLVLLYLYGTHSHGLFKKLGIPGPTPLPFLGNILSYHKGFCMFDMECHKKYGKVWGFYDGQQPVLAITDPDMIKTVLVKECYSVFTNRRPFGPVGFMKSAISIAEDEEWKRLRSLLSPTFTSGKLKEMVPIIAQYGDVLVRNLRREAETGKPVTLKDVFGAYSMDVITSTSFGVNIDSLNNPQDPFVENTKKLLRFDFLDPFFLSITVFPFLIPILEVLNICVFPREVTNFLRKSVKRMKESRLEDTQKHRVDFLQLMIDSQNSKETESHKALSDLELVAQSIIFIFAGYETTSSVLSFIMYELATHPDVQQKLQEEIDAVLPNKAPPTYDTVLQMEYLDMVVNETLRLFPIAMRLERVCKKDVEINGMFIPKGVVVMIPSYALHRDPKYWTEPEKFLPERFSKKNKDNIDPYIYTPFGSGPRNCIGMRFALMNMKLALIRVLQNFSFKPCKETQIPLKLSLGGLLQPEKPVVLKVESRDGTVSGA
Experimental: as §1, §2, §3

[3] = target: CYP3A4 (double-labeled (C64/C468)-DY/ER) (Homo sapiens, UniProt P08684, form not given/S18F); experiment: Steady-state LRET titration (delayed emission); assay type: binding; conditions: human, purified double-labeled CYP3A4 (C64/C468)-DY/ER protein, pH 7.4; (C64/C468)-DY/ER; LRET titration; read-out: K d, steady-state fluorescence
Chain of CYP3A4 (double-labeled (C64/C468)-DY/ER) (P08684 13-503 S18F, form open): as above
Experimental: as §1
(§4) Fluorescence-based ligand binding assays were done under anaerobic conditions. Anaerobiosis was achieved using an oxygen-scavenging system consisting of protecatechuate-3,4-dioxygenase (0.5 units/ml) and 5 mM protocatechuic acid. The steady state and time-resolved phosphorescence measurements were performed with the use of a Cary Eclipse fluorescence spectrophotometer (Varian/Agilent Technologies). The excitation wavelength was set to 540 nm. Spectra were taken from 650 to 860 nm with 100 µs delay.
(§5) Quantitative interpretation of LRET results was also based on the use of PCA applied to a series of emission spectra normalized on integral intensity. […] Intensity of the donor and acceptor fluorescence obtained in this way were used in determination of the efficiency of steady-state LRET using the equation [drawing 1] (Eq.1) where I ad is emission intensity of the acceptor, I da is the residual donor emission in the presence of acceptor (I da), Φ a and Φ d are the quantum yield of the fluorescence of acceptor and the quantum yield of the phosphorescence of donor, respectively.
(§6) Distances were calculated using the equation: [drawing 3] (Eq.3) where R 0 is the Förster distance, and R is the distance between the donor and acceptor. R 0 was calculated with the use of PhotoChemCad software. In these calculations, we used the values of the orientation factor (κ^2) and the refractive index (n) of 0.667 and 1.4, respectively.
as §3

[4] = target: T1, double-labeled CYP3A4 (C64/C468)-DY/ER (Homo sapiens, UniProt P08684, S18F, form not given); experiment: Steady-state LRET titration (delayed emission); assay type: binding
T1 sequence (P08684 13-503 S18F, form open): as above
Experimental: as §1, §4, §5, §6, §3

[5] = target: T2, double-labeled CYP3A4 (C64/C468)-ER/DY (Homo sapiens, UniProt P08684, S18F, form not given); experiment: Steady-state LRET titration (delayed emission); assay type: binding
T2 sequence (P08684 13-503 S18F, form open): as above
Experimental: as §1, §4, §5, §6, §3

[6] = target: T3, double-labeled CYP3A4 C377/C468-DY/ER (Homo sapiens, UniProt P08684, S18F, form not given); experiment: Steady-state LRET titration (delayed emission); assay type: binding; conditions: Table S2, protein C377/C468-ER/DY
T3 sequence (P08684 13-503 S18F, form open): as above
Experimental: as §1, §4, §5, §6, §3

[7] = target: double-labeled CYP3A4 C64/C121-DY/ER (Homo sapiens, UniProt P08684, A121C/C239S/C377S/C468A/C98S/S18F); experiment: Steady-state LRET titration (delayed emission); conditions: Table S2; protein C64/C121-ER/DY; same ligand concentrations
Chain of double-labeled CYP3A4 C64/C121-DY/ER (P08684 with tags, fused parts or gaps S18F/C98S/A121C/C239S/C377S/C468A limits assumed): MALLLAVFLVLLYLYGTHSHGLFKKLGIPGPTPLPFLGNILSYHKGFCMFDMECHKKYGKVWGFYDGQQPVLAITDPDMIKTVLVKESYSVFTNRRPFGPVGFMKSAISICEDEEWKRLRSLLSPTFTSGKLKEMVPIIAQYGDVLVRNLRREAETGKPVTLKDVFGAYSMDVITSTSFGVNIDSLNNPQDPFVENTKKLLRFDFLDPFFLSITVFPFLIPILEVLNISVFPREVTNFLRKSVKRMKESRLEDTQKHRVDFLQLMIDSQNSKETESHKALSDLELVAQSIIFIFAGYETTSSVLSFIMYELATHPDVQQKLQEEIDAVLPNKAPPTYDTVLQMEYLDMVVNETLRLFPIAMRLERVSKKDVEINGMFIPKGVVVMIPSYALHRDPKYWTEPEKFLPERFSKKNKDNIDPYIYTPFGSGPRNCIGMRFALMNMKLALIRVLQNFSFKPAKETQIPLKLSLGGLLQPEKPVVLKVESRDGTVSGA
Experimental: as §1, §4, §5, §6, §3

[8] = target: T1, double-labeled CYP3A4 (C64/C468)-DY/ER; experiment: Time-resolved LRET (phosphorescence lifetime measurements)
Source text: (§7) The excitation wavelength was set to 540 nm.

[9] = target: T2, double-labeled CYP3A4 (C64/C468)-ER/DY; experiment: as above
Source text: as §7

[10] = target: T3, double-labeled CYP3A4 C377/C468-DY/ER; experiment: as above
Source text: as §7

[11] = Table S2, C64/C468-DY/ER, 1-PB 40 µM, ANF 100 µM, BCT 2.5 µM, cholesterol 100 µM, testosterone 100 µM
[12] = Table S2, C64/C468-DY/ER, same ligand concentrations
[13] = Table S2, C64/C468-ER/DY, 1-PB 40 µM, ANF 100 µM, BCT 2.5 µM, cholesterol 100 µM, testosterone 100 µM
[14] = Table S2, C64/C468-ER/DY, same ligand concentrations
[15] = (C64/C468)-DY/ER, nearly-saturating ligand: ANF 100 µM, bromocriptine 2.5 µM, cholesterol 50 µM, testosterone 100 µM
[16] = Table S1, (C64/C468)-DY/ER, same ligand concentrations
[17] = (C64/C468)-ER/DY, nearly-saturating ligand: ANF 100 µM, bromocriptine 2.5 µM, cholesterol 50 µM, testosterone 100 µM
[18] = Table S1, (C64/C468)-ER/DY, same ligand concentrations
[19] = Table S1, protein (C377/C468)-ER/DY, same ligand concentrations
[20] = Table S2, protein C377/C468-ER/DY, same ligand concentrations

Chain of CYP3A4 (C377/C468 mutant) (P08684 13-503 S18F, form open): as the sequence (P08684 13-503 S18F, form open) above

O=c1cc(-c2ccccc2)oc2c1ccc1ccccc12 [ANF, α-naphthoflavone]
Kd [1]: 6.2 ± 1.2 µM | Kd [2]: 5.1 ± 1.5 µM | Kd [3]: 9.1 ± 2.9 µM | ΔR (change in interprobe distance), steady-state fluorescence ([4]; (C64/C468)-DY/ER): 3.9±1.7 Å | ΔE (change in LRET efficiency), steady-state fluorescence ([4]; (C64/C468)-DY/ER, from maximal relative change in donor intensity): −18±1% | E (LRET efficiency with ligand), steady-state measurements [4, 11]: 29 ± 1% | R (interprobe distance with ligand), steady-state measurements [4, 12]: 38.8 ± 1 Å | ΔR, steady-state measurements [4, 12]: 3.9 ± 1.7 Å | ΔR (change in interprobe distance), steady-state fluorescence ([5]; (C64/C468)-ER/DY): 2.1±0.9 Å | ΔE (change in LRET efficiency), steady-state fluorescence ([5]; (C64/C468)-ER/DY, from maximal relative change in donor intensity): −8±4% | E (LRET efficiency with ligand), steady-state measurements [5, 13]: 23 ± 2% | R (interprobe distance with ligand), steady-state measurements [5, 14]: 41.2 ± 0.9 Å | ΔR, steady-state measurements [5, 14]: 2.1 ± 0.9 Å | E (LRET efficiency with ligand), steady-state measurements ([6]; 1-PB 40 µM, ANF 100 µM, BCT 2.5 µM, cholesterol 100 µM, testosterone 100 µM): 14 ± 0% | R (interprobe distance with ligand), steady-state measurements ([6]; same ligand concentrations): 45.2 ± 0.1 Å | ΔR, steady-state measurements ([6]; same ligand concentrations): 0.5 ± 0.1 Å | R (interprobe distance with ligand), steady-state measurements [7]: 43.4 ± 0.1 Å | ΔR, steady-state measurements [7]: 1.1 ± 0.1 Å | ΔELT (change in LRET efficiency), lifetime measurements [8, 15]: −6.8±3% | ΔR (change in interprobe distance), lifetime measurements [8, 15]: 1.8±0.7 Å | τ1 (phosphorescence decay time with ligand) ([8]; Table S1, (C64/C468)-DY/ER, 1-PB 40 µM, ANF 100 µM, BCT 2.5 µM, cholesterol 100 µM, testosterone 100 µM, bi-exponential fit): 54 ± 1 µs | F1 (fraction of first exponential) [8, 16]: 45 ± 5% | τ2 (phosphorescence decay time with ligand) [8, 16]: 231 ± 15 µs | τav (average phosphorescence lifetime with ligand) [8, 16]: 154 ± 4 µs | E (LRET efficiency with ligand), lifetime measurements [8, 11]: 34 ± 2% | R (interprobe distance with ligand), lifetime measurements [8, 12]: 38.6 ± 0.5 Å | ΔR, lifetime measurements [8, 12]: 1.8 ± 0.5 Å | ΔELT (change in LRET efficiency), lifetime measurements [9, 17]: −14.5±1% | ΔR (change in interprobe distance), lifetime measurements [9, 17]: 4.1±0.2 Å | τ1 (phosphorescence decay time with ligand) ([9]; Table S1, (C64/C468)-ER/DY, 1-PB 40 µM, ANF 100 µM, BCT 2.5 µM, cholesterol 100 µM, testosterone 100 µM, bi-exponential fit): 53 ± 2 µs | F1 (fraction of first exponential) [9, 18]: 34 ± 1% | τ2 (phosphorescence decay time with ligand) [9, 18]: 216 ± 3 µs | τav (average phosphorescence lifetime with ligand) [9, 18]: 168 ± 1 µs | E (LRET efficiency with ligand), lifetime measurements [9, 13]: 28 ± 1% | R (interprobe distance with ligand), lifetime measurements [9, 14]: 40.4 ± 0.1 Å | ΔR, lifetime measurements [9, 14]: 4.1 ± 0.1 Å | τ1 (phosphorescence decay time with ligand) ([10]; Table S1, protein (C377/C468)-ER/DY, 1-PB 40 µM, ANF 100 µM, BCT 2.5 µM, cholesterol 100 µM, testosterone 100 µM, bi-exponential fit): 42 ± 10 µs | F1 (fraction of first exponential) [10, 19]: 28 ± 5% | τ2 (phosphorescence decay time with ligand) [10, 19]: 188 ± 18 µs | τav (average phosphorescence lifetime with ligand) [10, 19]: 147 ± 8 µs | E (LRET efficiency with ligand), lifetime measurements ([10]; Table S2, protein C377/C468-ER/DY, 1-PB 40 µM, ANF 100 µM, BCT 2.5 µM, cholesterol 100 µM, testosterone 100 µM): 19 ± 4% | R (interprobe distance with ligand), lifetime measurements [10, 20]: 43.9 ± 2.3 Å | ΔR, lifetime measurements [10, 20]: 7.1 ± 2.3 Å
